The data set is described as follows: Hydrolysis of clonixeril to clonixin by HPLC. Type of data set: physicochemical. As for the experimental part:
To determine clonixeril’s hydrolytic stability and evaluate its potential as an oral drug, an aqueous solution was concentrated for analysis at 20 µM. The sample was analyzed by HPLC using an […]
The UV spectra of these peaks were compared by diode array and found to be identical with maximum absorbance at 280nm and 343nm. […]
the minor first peak matched the molecular weight of clonixin (M+H)+ and the second major peak matched the molecular weight of clonixeril (M+H)+. Data was generated by measuring the ratio between the two peaks. Hydrolysis of clonixeril to clonixin was measured by HPLC over seven days using a 20 µM aqueous solution.
96.8% clonixeril (Figure S4B). Most of the hydrolysis occurred within the first two days at an average rate of […], and then slowed down to an average rate of 0.07% per hour by day seven (Figure S4B). The rate decrease correlated with an observable decrease in solution pH as a product of hydrolysis. Further samples solubilized in pH 2.00 phosphoric acid and pH 1.99 hydrochloric acid confirmed that the rate decreases to an average of 0.014% per hour over […]
a seven-day period. […]

Take `Cc1c(Cl)cccc1Nc1ncccc1C(=O)OCC(O)CO` (stereo not drawn) [CXL, clonixeril]: the “Initial hydrolysis, clonixeril” value turned out to be 96.8% (20 µM aqueous solution) and 88.2% (5% sodium bicarbonate). Further, the “Initial hydrolysis, clonixin” value was 3.2% (20 µM aqueous solution) and 11.8% (5% sodium bicarbonate). Further, the “Average rate of hydrolysis” value came out at 0.07 % per hour (aqueous solution, by day seven); 0.13 % per hour (aqueous solution, first two days); 0.014 % per hour (pH 2.00 phosphoric acid and pH 1.99 hydrochloric acid, seven-day period). Also, the Hydrolysis entry is on record as “relatively slow hydrolysis” (pH of 1.0) and “surprisingly slow” (pH=2.0).

(Values after PMC12203428, “Discovery of Clonixeril as a Sub-Femtomolar Modulator of the Human STING Receptor” (ACS Central Science, 2025).)
